Experimental findings from patent US9718785B2, “1,3-Disubstituted cyclopentane derivatives” (MERCK PATENT GMBH, priority 2013, dated 2017) are described below.

pIC50: −log10 of the molar value. A value given as a limit tells only on which side of the number the result lay.

T1 sequence (P49327 whole entry): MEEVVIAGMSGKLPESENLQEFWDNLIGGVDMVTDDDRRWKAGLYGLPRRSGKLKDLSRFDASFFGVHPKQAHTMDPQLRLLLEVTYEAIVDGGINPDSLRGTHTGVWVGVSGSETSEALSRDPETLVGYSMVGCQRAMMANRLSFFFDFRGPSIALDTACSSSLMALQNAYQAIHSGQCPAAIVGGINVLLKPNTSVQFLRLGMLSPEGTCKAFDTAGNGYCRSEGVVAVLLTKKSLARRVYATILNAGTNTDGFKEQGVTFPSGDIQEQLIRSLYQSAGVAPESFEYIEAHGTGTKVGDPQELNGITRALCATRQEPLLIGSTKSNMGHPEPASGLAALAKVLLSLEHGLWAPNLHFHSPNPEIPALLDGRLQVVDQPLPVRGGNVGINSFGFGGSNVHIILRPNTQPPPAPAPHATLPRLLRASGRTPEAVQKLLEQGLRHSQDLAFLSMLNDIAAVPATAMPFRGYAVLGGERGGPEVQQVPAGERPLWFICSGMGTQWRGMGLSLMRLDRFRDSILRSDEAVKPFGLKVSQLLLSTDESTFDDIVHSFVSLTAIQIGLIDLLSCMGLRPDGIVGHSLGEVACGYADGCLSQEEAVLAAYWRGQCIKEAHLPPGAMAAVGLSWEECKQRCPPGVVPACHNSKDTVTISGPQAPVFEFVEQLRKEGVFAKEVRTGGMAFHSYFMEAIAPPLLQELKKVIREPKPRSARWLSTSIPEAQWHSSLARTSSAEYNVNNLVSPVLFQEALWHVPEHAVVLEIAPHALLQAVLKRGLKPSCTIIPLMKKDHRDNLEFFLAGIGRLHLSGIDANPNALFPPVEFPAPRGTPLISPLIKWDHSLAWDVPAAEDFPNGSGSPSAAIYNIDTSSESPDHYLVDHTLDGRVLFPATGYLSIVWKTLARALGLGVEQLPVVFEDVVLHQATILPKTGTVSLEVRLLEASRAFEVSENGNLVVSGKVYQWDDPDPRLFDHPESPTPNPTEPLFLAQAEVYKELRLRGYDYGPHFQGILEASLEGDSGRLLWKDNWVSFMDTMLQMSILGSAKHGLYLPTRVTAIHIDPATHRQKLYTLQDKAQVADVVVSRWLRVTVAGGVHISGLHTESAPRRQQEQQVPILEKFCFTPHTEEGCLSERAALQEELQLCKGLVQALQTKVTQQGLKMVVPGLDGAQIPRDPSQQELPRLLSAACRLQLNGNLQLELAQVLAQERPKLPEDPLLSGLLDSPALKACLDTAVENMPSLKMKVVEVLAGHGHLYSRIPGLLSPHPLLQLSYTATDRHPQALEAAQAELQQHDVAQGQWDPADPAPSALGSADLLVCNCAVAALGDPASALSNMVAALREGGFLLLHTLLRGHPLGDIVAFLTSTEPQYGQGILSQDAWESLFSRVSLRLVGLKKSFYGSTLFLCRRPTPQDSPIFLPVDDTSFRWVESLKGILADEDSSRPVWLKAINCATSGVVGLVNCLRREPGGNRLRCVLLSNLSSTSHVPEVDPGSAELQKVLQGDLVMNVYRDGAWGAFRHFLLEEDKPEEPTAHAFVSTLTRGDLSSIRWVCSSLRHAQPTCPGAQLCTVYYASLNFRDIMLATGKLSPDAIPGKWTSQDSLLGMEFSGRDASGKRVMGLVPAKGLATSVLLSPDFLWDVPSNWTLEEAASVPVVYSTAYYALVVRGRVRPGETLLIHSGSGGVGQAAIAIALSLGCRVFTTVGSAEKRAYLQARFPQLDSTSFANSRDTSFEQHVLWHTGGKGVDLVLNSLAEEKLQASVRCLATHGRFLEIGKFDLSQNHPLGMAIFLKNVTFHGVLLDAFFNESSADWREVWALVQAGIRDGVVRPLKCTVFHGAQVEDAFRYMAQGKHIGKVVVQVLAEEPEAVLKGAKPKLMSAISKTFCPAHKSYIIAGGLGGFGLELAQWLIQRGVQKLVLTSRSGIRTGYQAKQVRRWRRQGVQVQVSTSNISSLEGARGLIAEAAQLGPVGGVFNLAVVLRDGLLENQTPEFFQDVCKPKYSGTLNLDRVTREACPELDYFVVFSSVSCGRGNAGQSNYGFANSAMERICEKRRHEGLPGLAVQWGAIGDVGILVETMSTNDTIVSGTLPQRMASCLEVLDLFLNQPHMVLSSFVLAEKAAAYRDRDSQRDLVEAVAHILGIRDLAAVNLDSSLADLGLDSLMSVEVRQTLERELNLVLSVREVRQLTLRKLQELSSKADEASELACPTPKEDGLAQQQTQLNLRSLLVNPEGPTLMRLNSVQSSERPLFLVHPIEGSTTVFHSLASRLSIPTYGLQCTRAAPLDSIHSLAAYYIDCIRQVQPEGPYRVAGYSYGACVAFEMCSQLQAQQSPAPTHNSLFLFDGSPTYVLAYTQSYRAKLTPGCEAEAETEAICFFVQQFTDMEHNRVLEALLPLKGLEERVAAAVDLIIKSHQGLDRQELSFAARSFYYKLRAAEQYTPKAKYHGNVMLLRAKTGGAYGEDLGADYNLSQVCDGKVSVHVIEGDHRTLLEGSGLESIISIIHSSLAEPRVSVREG

The assay has as its target T1, human recombinant full-length fatty acid synthase (FASN) (Homo sapiens, UniProt P49327).
T1 construct: 40 nM human recombinant full-length fatty acid synthase (produced in-house in SF9 cells); made in house; host or cells: SF9 insect cells
In words: Biochemical activity testing of human fatty acid synthase FASN (NADPH fluorescence intensity enzyme assay). Particulars: human recombinant FASN, enzyme assay. The source says:
Biochemical Activity Testing of Human Fatty Acid Synthase FASN
Fatty acid synthase FASN is a multifunctional enzyme with seven catalytic activities thereby synthesising long chain fatty acids especially palmitoyl-CoA in the presence of co-factor NADPH starting from the substrates acetyl-CoA and malonyl-CoA. The reductive synthesis is realized by the oxidation of NADPH to NADP. Since NADPH has a high fluorescence intensity quantum yield compared to NADP with excitation at 340 nm and emission at 460 nm, the reaction can be monitored via the decrease in fluorescence intensity. The biochemical FASN activity testing was performed as 384 well two-time-point kinetic fluorescence intensity assay format in Greiner low volume medium binding 384-well black microtiter plates in a total assay volume of 8 μl and was used for high throughput screen. In each well 3 μl 40 nM human recombinant full-length fatty acid synthase (produced in-house in SF9 cells) were dispensed in the following assay buffer: 50 mM potassium phosphate buffer pH 7.0, 0.005% (w/v) BSA, 2 mM Glutathione, 0.02% Tween-20. Then 2 μl of 200 μM NADPH in assay buffer were added, followed by the addition of the test compounds in 10 dilution concentrations starting with 30 μM (final concentration) to get a final DMSO content of 1% (v/v). The mixture was incubated for at least 15 min at room temperature. After the pre-incubation the enzymatic reaction was started by the addition of 2 μl substrate solution (80 μM acetyl-CoA, 240 μM malonyl-CoA). A first fluorescence intensity measurement (time point one) was performed with an Envision multimode reader (Perkin Elmer LAS Germany GmbH) at excitation wavelength 340 nm (lamp mode) and emission wavelength 460 nm. The reaction was incubated for 30 minutes at room temperature. After this the fluorescence intensity was measured again in the Envision using the same parameters as described above (second time point measurement). The data were analysed by subtracting the first time point measurement value from the second time point measurement value (after the enzymatic reaction). The differences of the emission signals were determined. These reflect directly the conversion rate of NADPH. The full value used was the inhibitor-free reaction. A pharmacological zero value was used like GSK837149A (Sigma-Aldrich) in a final concentration of 5-10 μM. The inhibitory values (IC50) were determined using either the program Symyx Assay Explorer® or Condosseo® from GeneData.
For `CCC(=O)N[C@H]1CC[C@@H](n2cnnc2-c2ccc(-c3ccc4ncsc4c3)cc2)C1` [Compound A43, N-{(1S,3R)-3-[3-(4-benzothiazol-6-yl-phenyl)-[1,2,4]triazol-4-yl]-cyclopentyl}-propionamide], the pIC50 was greater than 6.52.
Consider `CCC(=O)N[C@H]1CC[C@@H](n2nncc2-c2ccc(-c3ccc4c(c3)CC(=O)N4)cc2)C1` [Compound A79, N-((1S,3R)-3-{5-[4-(2-Oxo-2,3-dihydro-1H-indol-5-yl)-phenyl]-[1,2,3]triazol-1-yl}-cyclopentyl)-propionamide], for which the negative logarithm of the IC50 (pIC50) is greater than 6.52.
`CCC(=O)N[C@H]1CC[C@@H](n2nncc2-c2ccc(-c3ccc(OC)c(OC)c3)cc2)C1` [Compound A88, N-{(1S,3R)-3-[5-(3′,4′-Dimethoxy-biphenyl-4-yl)-[1,2,3]triazol-1-yl]-cyclopentyl}-propionamide]: the pIC50 is greater than 6.52.
Consider `CCC(=O)N[C@H]1CC[C@@H](n2nncc2-c2ccc(-c3ccc4[nH]ccc4c3F)cn2)C1` [Compound A116, N-((1S,3R)-3-{5-[5-(4-Fluoro-1H-indol-5-yl)-pyridin-2-yl]-[1,2,3]triazol-1-yl}-cyclopentyl)-propionamide], for which the pIC50 is greater than 6.52.
For the molecule `CCC(=O)N[C@H]1CC[C@@H](n2cncc2-c2ccc(-c3nc4ccccc4o3)cc2)C1` [Compound A19, N-{(1S,3R)-3-[5-(4-benzoxazol-2-yl-phenyl)-imidazol-1-yl]-cyclopentyl}-propionamide], the pIC50 was greater than 6.52.
For `CCC(=O)N[C@H]1CC[C@@H](n2nncc2-c2ccc(-c3ccc(-c4cnn(C)c4)cc3)cc2)C1` [Compound A64, N-((1S,3R)-3-{5-[4′-(1-Methyl-1H-pyrazol-4-yl)-biphenyl-4-yl]-[1,2,3]triazol-1-yl}-cyclopentyl)-propionamide] the value was greater than 6.52; for `CCNC(=O)[C@H]1CC[C@@H](n2cnnc2-c2ccc(-c3ccc4cc[nH]c4c3)cc2)C1` [Compound A30, (1S,3R)-3-{3-[4-(1H-indol-6-yl)-phenyl]-[1,2,4]triazol-4-yl}-cyclopentanecarboxylic acid ethylamide], greater than 6.52.
Turning to `CCC(=O)N[C@H]1CC[C@@H](n2nncc2-c2ccc(-c3ccc(C)c(F)c3)cc2)C1` [Compound A83, N-{(1S,3R)-3-[5-(3′-Fluoro-4′-methyl-biphenyl-4-yl)-[1,2,3]triazol-1-yl]-cyclopentyl}-propionamide], the pIC50 is greater than 6.52.
The same measure for `CCC(=O)N[C@H]1CC[C@@H](n2cnnc2-c2ccc(-c3ccc4c(ccn4C)c3)cc2)C1` [Compound A97, N-((1S,3R)-3-{3-[4-(1-Methyl-1H-indol-5-yl)-phenyl]-[1,2,4]triazol-4-yl}-cyclopentyl)-propionamide]: greater than 6.52.
In the case of `CCC(=O)N[C@H]1CC[C@@H](n2cncc2-c2ccc(-c3ccc(Cl)cc3)cc2)C1` [Compound A21, N-{(1S,3R)-3-[5-(4′-chloro-biphenyl-4-yl)-imidazol-1-yl]-cyclopentyl}-propionamide], the pIC50 was greater than 6.52.
Consider `CC1(NC(=O)[C@H]2CC[C@@H](n3cncc3-c3ccc(-c4cc5cc(F)ccc5[nH]4)cc3)C2)CC1` [Compound A8, (1S,3R)-3-{5-[4-(5-fluoro-1H-indol-2-yl)-phenyl]-imidazol-1-yl}-cyclopentanecarboxylic acid (1-methyl-cyclopropyl)-amide], for which the pIC50 was 5.52 to 6.52.
The same measure for `CC1(NC(=O)[C@H]2CC[C@@H](n3cncc3-c3ccc(-c4ccc(C#N)cc4)cc3)C2)CC1` [Compound A12, (1S,3R)-3-[5-(4′-cyano-biphenyl-4-yl)-imidazol-1-yl]-cyclopentanecarboxylic acid (1-methyl-cyclopropyl)-amide]: 5.52 to 6.52; for `CCNC(=O)[C@H]1CC[C@@H](n2nncc2-c2ccc(-c3ccc(OC)c(OC)c3)cc2)C1` [Compound A102, (1S,3R)-3-[5-(3′,4′-Dimethoxy-biphenyl-4-yl)-[1,2,3]triazol-1-yl]-cyclopentanecarboxylic acid ethylamide]: greater than 6.52.
`CCC(=O)N[C@H]1CC[C@@H](n2nncc2-c2ccc(-c3ccc4cc[nH]c4c3)cc2)C1` [Compound A59, N-((1S,3R)-3-{5-[4-(1H-Indol-6-yl)-phenyl]-[1,2,3]triazol-1-yl}-cyclopentyl)-propionamide]: the pIC50 was greater than 6.52.
`CC1(NC(=O)[C@H]2CC[C@@H](n3cncc3-c3ccc(-c4ccc5[nH]ccc5c4)cc3)C2)CC1` [Compound A10, (1S,3R)-3-{5-[4-(1H-indol-5-yl)-phenyl]-imidazol-1-yl}-cyclopentanecarboxylic acid (1-methyl-cyclopropyl)-amide]: the pIC50 was greater than 6.52.
For `CCC(=O)N[C@H]1CC[C@@H](n2nncc2-c2ccc(-c3ccc4[nH]ncc4c3)cc2)C1` [Compound A74, N-((1S,3R)-3-{5-[4-(1H-Indazol-5-yl)-phenyl]-[1,2,3]triazol-1-yl}-cyclopentyl)-propionamide] the value was greater than 6.52.
Consider `CCC(=O)N[C@H]1CC[C@@H](n2nncc2-c2ccc(-c3ccc4c(c3)N(C)C(=O)C4)cc2)C1` [Compound A77, N-((1S,3R)-3-{5-[4-(1-Methyl-2-oxo-2,3-dihydro-1H-indol-6-yl)-phenyl]-[1,2,3]triazol-1-yl}-cyclopentyl)-propionamide], for which the pIC50 was greater than 6.52.
The same measure for `CCNC(=O)[C@H]1CC[C@@H](n2cnnc2-c2ccc(-c3cccc4[nH]ncc34)cc2)C1` [Compound A35, (1S,3R)-3-{3-[4-(1H-indazol-4-yl)-phenyl]-[1,2,4]triazol-4-yl}-cyclopentanecarboxylic acid ethylamide]: greater than 6.52.
Take `CCC(=O)N[C@H]1CC[C@@H](n2cnnc2-c2ccc(-c3ccc4cc[nH]c4c3)cc2)C1` [Compound A44, N-((1S,3R)-3-{3-[4-(1H-indol-6-yl)-phenyl]-[1,2,4]triazol-4-yl}-cyclopentyl)-propionamide]: the pIC50 is greater than 6.52.
The same measure for `CCC(=O)N[C@H]1CC[C@@H](n2nncc2-c2ccc(-c3ccc4cn[nH]c4c3)cc2)C1` [Compound A72, N-((1S,3R)-3-{5-[4-(1H-Indazol-6-yl)-phenyl]-[1,2,3]triazol-1-yl}-cyclopentyl)-propionamide]: greater than 6.52; for `CCC(=O)N[C@H]1CC[C@@H](n2nncc2-c2ccc(-c3nc4ccc(Cl)cc4o3)cn2)C1` [Compound A114, N-((1S,3R)-3-{5-[5-(6-Chloro-benzoxazol-2-yl)-pyridin-2-yl]-[1,2,3]triazol-1-yl}-cyclopentyl)-propionamide]: 5.52 to 6.52.
For `CCC(=O)N[C@H]1CC[C@@H](n2nncc2-c2ccc(-c3ccc(F)c(Cl)c3)cc2)C1` [Compound A85, N-{(1S,3R)-3-[5-(3′-Chloro-4′-fluoro-biphenyl-4-yl)-[1,2,3]triazol-1-yl]-cyclopentyl}-propionamide] the value was greater than 6.52; for `CC1(NC(=O)[C@H]2CC[C@@H](n3cncc3-c3ccc(-c4cccc5[nH]ncc45)cc3)C2)CC1` [Compound A11, (1S,3R)-3-{5-[4-(1H-indazol-4-yl)-phenyl]-imidazol-1-yl}-cyclopentanecarboxylic acid (1-methyl-cyclopropyl)-amide], greater than 6.52; for `O=C(N[C@H]1CC[C@@H](n2nncc2-c2ccc(-c3nc4ccccc4o3)cc2)C1)[C@H]1CCCO1` [Compound A68, (R)-Tetrahydro-furan-2-carboxylic acid {(1S,3R)-3-[5-(4-benzooxazol-2-yl-phenyl)-[1,2,3]triazol-1-yl]-cyclopentyl}-amide], 5.52 to 6.52.
With `CCC(=O)N[C@H]1CC[C@@H](n2nncc2-c2ccc(-c3ccc4c(cnn4C)c3)cc2)C1` [Compound A61, N-((1S,3R)-3-{5-[4-(1-Methyl-1H-indazol-5-yl)-phenyl]-[1,2,3]triazol-1-yl}-cyclopentyl)-propionamide], the pIC50 is greater than 6.52.
The same measure for `CCNC(=O)[C@H]1CC[C@@H](n2cnnc2-c2ccc(-c3nc4ccccc4s3)cc2)C1` [Compound A33, (1S,3R)-3-[3-(4-benzothiazol-2-yl-phenyl)-[1,2,4]triazol-4-yl]-cyclopentanecarboxylic acid ethylamide]: greater than 6.52.
The same measure for `CCC(=O)N[C@H]1CC[C@@H](n2nncc2-c2ccc(-c3cc4cc[nH]c4cc3F)cc2)C1` [Compound A112, N-((1S,3R)-3-{5-[4-(6-Fluoro-1H-indol-5-yl)-phenyl]-[1,2,3]triazol-1-yl}-cyclopentyl)-propionamide]: greater than 6.52; for `CCC(=O)N[C@H]1CC[C@@H](n2cncc2-c2ccc(-c3cccc4[nH]ncc34)cc2)C1` [Compound A22, N-((1S,3R)-3-{5-[4-(1H-indazol-4-yl)-phenyl]-imidazol-1-yl}-cyclopentyl)-propionamide]: greater than 6.52.

The term pIC50 denotes the negative decadic logarithm of the IC50, by convention in mol/L.
